Results published in ChEMBL document CHEMBL3352684, “Discovery of MK-3697: a selective orexin 2 receptor antagonist (2-SORA) for the treatment of insomnia” (Bioorg Med Chem Lett, 2014).
Calls of active or inactive are those of the source. The rule behind the calls is not given here.

Columns and labels:
[1] = Drug uptake in mouse CSF at 100 mg/kg, po after 2 hrs; type: ADME, organism-based; design: dose 100 mg/kg, route oral; details: cerebrospinal fluid, read-out: Drug uptake
[2] = target: T1, Orexin receptor type 2 (Mus musculus) (UniProt P58308); assay: Antagonist activity at mouse OX2R by FLIPR assay
T1 sequence (whole entry): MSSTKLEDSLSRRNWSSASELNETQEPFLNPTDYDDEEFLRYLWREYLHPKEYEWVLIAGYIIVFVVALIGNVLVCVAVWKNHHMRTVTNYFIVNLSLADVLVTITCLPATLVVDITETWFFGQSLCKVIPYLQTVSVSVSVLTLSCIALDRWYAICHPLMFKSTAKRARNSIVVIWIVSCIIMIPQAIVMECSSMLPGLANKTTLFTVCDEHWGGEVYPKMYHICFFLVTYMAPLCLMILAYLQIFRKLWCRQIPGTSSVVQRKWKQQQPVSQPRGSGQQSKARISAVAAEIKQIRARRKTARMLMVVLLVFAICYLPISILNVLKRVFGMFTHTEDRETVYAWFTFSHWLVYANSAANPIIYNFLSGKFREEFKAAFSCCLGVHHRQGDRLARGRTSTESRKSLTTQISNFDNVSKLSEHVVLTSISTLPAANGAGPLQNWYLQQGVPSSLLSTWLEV

[3] = species: Canis lupus familiaris; assay: Antagonist activity at dog OX1R by FLIPR assay
[4] = Clearance in dog with cassette dosing; type: ADME, organism-based, Canis lupus familiaris; details: in vivo
[5] = Cmax in Sprague-Dawley rat at 15 mg/kg, po; type: ADME, organism-based; design: dose 15 mg/kg, route oral; details: in vivo
[6] = target: T2, Orexin/Hypocretin receptor type 1 (Rattus norvegicus) (UniProt P56718); assay: Antagonist activity at Sprague-Dawley rat OX1R by FLIPR assay
T2 sequence (whole entry): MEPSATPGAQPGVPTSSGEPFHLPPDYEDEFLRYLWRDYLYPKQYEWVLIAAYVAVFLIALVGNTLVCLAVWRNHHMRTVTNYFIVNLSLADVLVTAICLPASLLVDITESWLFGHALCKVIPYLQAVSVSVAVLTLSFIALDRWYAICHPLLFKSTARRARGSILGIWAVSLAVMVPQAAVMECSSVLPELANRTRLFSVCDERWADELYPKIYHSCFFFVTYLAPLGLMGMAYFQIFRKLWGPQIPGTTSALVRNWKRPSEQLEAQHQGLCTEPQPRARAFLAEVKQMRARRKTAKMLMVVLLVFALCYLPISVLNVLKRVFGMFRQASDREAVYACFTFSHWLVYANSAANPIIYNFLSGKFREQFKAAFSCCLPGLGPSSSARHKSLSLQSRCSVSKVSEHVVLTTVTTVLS

[7] = tested on: Canis familiaris; assay: Increase in rapid eye movement sleep in dog at 3 mg/kg, po after 3.5 hrs; type: functional, organism-based; design: dose 3 mg/kg; details: Canis lupus familiaris
[8] = Tmax in mouse at 100 mg/kg, po; type: ADME, organism-based; design: dose 100 mg/kg, route oral; details: in vivo
[9] = Cmax in mouse at 100 mg/kg, po; type: ADME, organism-based; design: dose 100 mg/kg, route oral; details: in vivo
[10] = Plasma protein binding in dog; type: ADME, cell-free, Canis lupus familiaris; details: read-out: PPB (converted)
[11] = tested on: Rattus norvegicus; assay: Increase in rapid eye movement sleep in Sprague-Dawley rat at 15 mg/kg, po after 2 hrs; type: functional, organism-based; design: dose 15 mg/kg
[12] = Drug uptake in Sprague-Dawley rat CSF at 15 mg/kg, po; type: ADME, organism-based, Cerebrospinal fluid; design: dose 15 mg/kg, route oral; details: in vivo, read-out: Drug uptake
[13] = target: T3, Orexin receptor type 2 (Homo sapiens, UniProt O43614); assay: Antagonist activity at human OX2R expressed in CHO cells assessed as inhibition of Ala-6,12-orexinA-induced effect after 5 mins by FLIPR assay; type: cell-based
T3 sequence (O43614 whole entry): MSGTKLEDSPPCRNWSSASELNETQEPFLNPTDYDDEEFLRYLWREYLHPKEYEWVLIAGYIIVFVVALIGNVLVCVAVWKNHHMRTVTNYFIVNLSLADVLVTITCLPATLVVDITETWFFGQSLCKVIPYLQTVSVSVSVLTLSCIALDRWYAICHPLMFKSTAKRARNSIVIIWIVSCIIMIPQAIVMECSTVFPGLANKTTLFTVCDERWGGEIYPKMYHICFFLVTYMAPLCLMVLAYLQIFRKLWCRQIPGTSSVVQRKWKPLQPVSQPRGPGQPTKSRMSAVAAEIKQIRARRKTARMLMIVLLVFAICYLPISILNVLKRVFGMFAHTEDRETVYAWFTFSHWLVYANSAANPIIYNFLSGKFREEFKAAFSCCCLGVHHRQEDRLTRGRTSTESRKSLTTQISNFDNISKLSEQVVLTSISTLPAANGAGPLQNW

[14] = AUC in dog at 3 mg/kg, po; type: ADME, organism-based, Canis lupus familiaris; design: dose 3 mg/kg, route oral; details: plasma
[15] = target: T4, Nuclear receptor subfamily 1 group I member 2 (Homo sapiens, UniProt O75469); assay: Activation of PXR (unknown origin) at 30 uM relative to rifampicin
T4 sequence (O75469 whole entry): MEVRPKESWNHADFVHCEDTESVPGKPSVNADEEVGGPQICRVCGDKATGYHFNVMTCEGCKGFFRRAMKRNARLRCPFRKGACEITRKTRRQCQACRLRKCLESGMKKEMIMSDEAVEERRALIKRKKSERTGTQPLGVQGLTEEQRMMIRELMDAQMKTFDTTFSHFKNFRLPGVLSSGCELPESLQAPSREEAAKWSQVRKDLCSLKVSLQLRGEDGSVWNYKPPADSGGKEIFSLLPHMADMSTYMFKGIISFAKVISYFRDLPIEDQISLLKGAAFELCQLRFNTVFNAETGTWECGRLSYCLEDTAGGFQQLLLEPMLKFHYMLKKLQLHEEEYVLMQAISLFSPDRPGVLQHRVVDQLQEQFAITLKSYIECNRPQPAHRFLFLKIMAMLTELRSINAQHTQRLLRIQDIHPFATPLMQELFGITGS

[16] = Cmax in rat at 5 mg/kg, po; type: ADME, organism-based; design: dose 5 mg/kg, route oral; details: in vivo
[17] = AUC in Sprague-Dawley rat at 15 mg/kg, po; type: ADME, organism-based; design: dose 15 mg/kg, route oral; details: plasma
[18] = tested on: Mus musculus; assay: Reduction in active wake sleep in OX2R-knockout mouse at 100 mg/kg, po after 2 hrs; type: functional, organism-based; design: dose 100 mg/kg
[19] = tested on: Mus musculus; assay: Reduction in active wake sleep in mouse at 100 mg/kg, po after 2 hrs; type: functional, organism-based; design: dose 100 mg/kg
[20] = AUC (0 to infinity) in rat at 5 mg/kg, po; type: ADME, organism-based; design: time infinity, dose 5 mg/kg, route oral; details: plasma
[21] = Oral bioavailability in rat at 5 mg/kg; type: ADME, organism-based; details: in vivo

concentration at 2 h [1]: 4.9 µM
INH [2]: 12 nM
INH [3]: 10 µM
clearance [4]: 12 mL/min/kg
Cmax [5]: 5.3 µM
INH [6]: 36.4 µM
Tmax [8]: 2 h
Cmax [9]: 55.3 µM
fraction unbound [10]: 0.169
concentration [12]: 0.9 µM
IC50 [13]: 16 nM
AUC [14]: 9 µM·h
Activity [15]: 16%
Cmax [16]: 2.1 µM
AUC [17]: 17.2 µM·h
AUC(0-inf) [20]: 3 µM·h
bioavailability [21]: 64%
SMILES: COc1ccc(CNC(=O)c2cc(-c3cncc(C)c3)ncc2-c2nccs2)nc1OC
Activity [7]: Active
Activity [11]: Active
Activity [18]: inactive
Activity [19]: Active
